Measurements taken from patent US20230203044A1, “PYRAZOLO[1,5-D][1,2,4]TRIAZINE-5(4H)-ACETAMIDES AS INHIBITORS OF THE NLRP3 INFLAMMASOME” (JANSSEN PHARMACEUTICA NV, priority 2020, published 2023).

How the values were obtained:
[1] = tested on: NLRP3 inflammasome; assay: PBMC assay: IL-1β in LPS-stimulated human PBMCs (MSD); assay type: cell-based; details: human PBMCs, 100 ng/ml LPS for 6 hrs, IL-1β in supernatant via MSD, read-out: IL1β IC50
Summary of the method: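 Human PBMCs from healthy donors, Ficoll-isolated and cryopreserved, were plated at 7.5×10^4 cells/well in RPMI/10% FBS for 30 min at 37 °C. Cells were then stimulated with 100 ng/ml LPS (final) for 6 h. IL-1β and TNF in supernatants were quantified by MSD immunoassay.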

[2] = tested on: TNF; assay: PBMC assay: TNF cytokine levels in LPS-stimulated human PBMCs (MSD); assay type: cell-based; details: 100 ng/ml LPS for 6 hrs, TNF in supernatant via MSD
Summary of the method: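 Cryopreserved healthy-donor human PBMCs (7.5×10^4 cells/well, RPMI + 10% FBS) were preincubated with 1:3 serially diluted compounds for 30 min at 37 °C. They were then stimulated with 100 ng/ml LPS (final) for 6 h. Supernatant TNF was measured by MSD, and EC50 values were derived.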

Row | SMILES | IC50 [1] [µM] | EC50 [2] [µM]
1 | CC(C)c1nn(CC(=O)Nc2ccnc(C(F)F)c2)c(=O)c2cc(C3CC3)nn12 [Final Cpd 130] | 0.53 | > 10
2 | Cc1ncc(NC(=O)Cn2nc(C(C)C)n3nc(C4CC4)cc3c2=O)cn1 [Final Cpd 131] | 3.57 | > 10
3 | COc1nccc(NC(=O)Cn2nc(C(C)C)n3nc(C4CC4)cc3c2=O)n1 [Final Cpd 132] | 0.72 | > 10
4 | CC(C)c1nn(CC(=O)Nc2ccncc2Cl)c(=O)c2cc(C3CC3)nn12 [Final Cpd 133] | 0.44 | ≥ 10
5 | Cc1cnccc1NC(=O)Cn1nc(C(C)C)n2nc(C3CC3)cc2c1=O [Final Cpd 134] | 0.23 | > 10
6 | CC(C)c1nn(CC(=O)Nc2cnccc2Cl)c(=O)c2cc(C3CC3)nn12 [Final Cpd 135] | 6.93 | > 10
7 | CC(C)c1nn(CC(=O)Nc2ccn3c(F)cnc3c2)c(=O)c2cc(C3CC3)nn12 [Final Cpd 136] | 1.41 | > 10
8 | Cc1cc(NC(=O)Cn2nc(C(C)C)n3nc(C4CC4)cc3c2=O)nc(C)n1 [Final Cpd 137] | 1.23 | > 10
9 | Cc1ccncc1NC(=O)Cn1nc(C(C)C)n2nc(C3CC3)cc2c1=O [Final Cpd 138] | > 10 | > 10
10 | COc1nn(CC(=O)N[C@H]2C[C@@](C)(O)C2)c(=O)c2cc(C3CC3)nn12 [Final Cpd 139] | 6.56 | > 10
11 | CCc1cc2c(=O)n(CC(=O)N[C@H]3C[C@@](C)(O)C3)nc(C(C)C)n2n1 [Final Cpd 140] | 0.21 | > 10
12 | CCc1cc2c(=O)n(CC(=O)Nc3ccnnc3)nc(C(C)C)n2n1 [Final Cpd 141] | 0.42 | > 10
13 | CC(C)c1cc2c(=O)n(CC(=O)N[C@H]3C[C@@](C)(O)C3)nc(C(C)C)n2n1 [Final Cpd 142] | 0.14 | > 10
14 | CC(C)c1cc2c(=O)n(CC(=O)Nc3ccc4nncn4c3)nc(C(C)C)n2n1 [Final Cpd 143] | 0.1 | > 10
15 | CC(C)c1cc2c(=O)n(CC(=O)Nc3ccnnc3)nc(C(C)C)n2n1 [Final Cpd 144] | 0.32 | > 10
16 | CCCc1cc2c(=O)n(CC(=O)Nc3ccnnc3)nc(C(C)C)n2n1 [Final Cpd 145] | 0.51 | > 10
17 | CCc1cc2c(=O)n(CC(=O)Nc3ccc4nncn4c3)nc(C(C)C)n2n1 [Final Cpd 146] | 0.21 | > 10
18 | CC(C)c1cc2c(=O)n(CC(=O)Nc3ccncn3)nc(N(C)C)n2n1 [Final Cpd 147] | 0.4 | > 10
19 | CC(C)c1cc2c(=O)n(CC(=O)Nc3ccc4nncn4c3)nc(N(C)C)n2n1 [Final Cpd 148] | 0.32 | > 10
20 | CC(C)c1cc2c(=O)n(CC(=O)Nc3ccnnc3)nc(N(C)C)n2n1 [Final Cpd 149] | 0.78 | > 10
21 | CC(C)c1cc2c(=O)n(CC(=O)N[C@H]3C[C@@](C)(O)C3)nc(N(C)C)n2n1 [Final Cpd 150] | 0.36 | > 10
22 | CC(C)c1nn2c(N(C)C)nn(CC(=O)Nc3ccncn3)c(=O)c2c1Br [Final Cpd 151] | > 10 | > 10
23 | CCc1cc2c(=O)n(CC(=O)Nc3ccnnc3)nc(N(C)C)n2n1 [Final Cpd 152] | 0.86 | > 10
24 | CC(C)c1nn(CC(=O)N[C@H]2C[C@@](C)(O)C2)c(=O)c2cc(C3CC3(F)F)nn12 (some centres unmarked) [Final Cpd 153] | 0.09 | > 10
25 | CC(C)c1cc2c(=O)n(CC(=O)N[C@H]3C[C@@](C)(O)C3)nc(C(C)O)n2n1 (some centres unmarked) [Final Cpd 154] | 3 | > 10
26 | CC(C)c1cc2c(=O)n(CC(=O)Nc3ccc4nncn4c3)nc(C(C)O)n2n1 (centres unmarked) [Final Cpd 155] | 1.14 | > 10

Row | SMILES | IC50 [1] [µM] | EC50 [2] [µM]
27 | CC(C)c1cc2c(=O)n(CC(=O)Nc3ccncn3)nc(C(C)O)n2n1 (centres unmarked) [Final Cpd 156] | 1.96 | > 10
28 | CC(C)c1nn(CC(=O)Nc2ccc3nncn3c2)c(=O)c2cc(C(O)C(F)(F)F)nn12 (centres unmarked) [Final Cpd 157] | > 10 | > 10
29 | CC(C)c1nn(CC(=O)N[C@H]2C[C@@](C)(O)C2)c(=O)c2cc(C(O)C(F)(F)F)nn12 (some centres unmarked) [Final Cpd 158] | > 10 | > 10
30 | CC(C)c1nn(CC(=O)Nc2ccc3nncn3c2)c(=O)c2cc(CC(F)(F)F)nn12 [Final Cpd 159] | 2.24 | > 10
31 | CC(C)c1nn(CC(=O)N[C@H]2C[C@@](C)(O)C2)c(=O)c2cc(CC(F)(F)F)nn12 [Final Cpd 160] | > 10 | > 10
32 | CC(C)c1nn(CC(=O)N[C@H]2C[C@@](C)(O)C2)c(=O)c2cc(C(C)(F)F)nn12 [Final Cpd 161] | 0.11 | > 10
33 | O=C(Cn1nc(C2CC2)n2nc(C3CC3)cc2c1=O)Nc1ccc2nncn2n1 [Final Cpd 163, N-([1,2,4]triazolo[4,3-b]pyridazin-6-yl)-2-(2,7-dicyclopropyl-4-oxopyrazolo[1,5-d][1,2,4]triazin-5(4H)-yl)acetamide] | 0.62 | > 10
34 | CC(C)c1nn(CC(=O)Nc2cc(F)[nH]c(=O)c2)c(=O)c2cc(C3CC3)nn12 [Final Cpd 164] | 0.54 | > 10
35 | CC(C)c1nn(CC(=O)Nc2ccc3nccn3n2)c(=O)c2cc(C3CC3)nn12 [Final Cpd 165] | 0.1 | > 10
36 | CC(C)c1nn(CC(=O)Nc2ccc3nncn3n2)c(=O)c2cc(C3CC3)nn12 [Final Cpd 166, N-([1,2,4]triazolo[4,3-b]pyridazin-6-yl)-2-(2-cyclopropyl-7-isopropyl-4-oxopyrazolo[1,5-d][1,2,4]triazin-5(4H)-yl)acetamide] | 0.044 | > 10
37 | CC(C)c1nn(CC(=O)Nc2ccc3nc(C(F)(F)F)cn3c2)c(=O)c2cc(C3CC3)nn12 [Final Cpd 167] | 0.38 | > 10
38 | CC(C)c1nn(CC(=O)Nc2ccc3nnc(C(F)(F)F)n3n2)c(=O)c2cc(C3CC3)nn12 [Final Cpd 168] | 0.84 | > 10
39 | CC(C)c1nn(CC(=O)Nc2ccc3nnnn3n2)c(=O)c2cc(C3CC3)nn12 [Final Cpd 169] | 0.16 | > 10
40 | CC(C)c1nn(CC(=O)Nc2ccc3nnc(Cl)n3n2)c(=O)c2cc(C3CC3)nn12 [Final Cpd 170] | 0.55 | > 10
41 | Cc1nnc2ccc(NC(=O)Cn3nc(C(C)C)n4nc(C5CC5)cc4c3=O)nn12 [Final Cpd 171] | 0.22 | > 10
42 | CC(C)c1nn(CC(=O)Nc2ccc(C(F)(F)F)nn2)c(=O)c2cc(C3CC3)nn12 [Final Cpd 172, 2-(2-cyclopropyl-7-isopropyl-4-oxopyrazolo[1,5-d][1,2,4]triazin-5(4H)-yl)-N-(6-(trifluoromethyl)pyridazin-3-yl)acetamide] | > 10 | > 10
43 | CC(C)c1nn(CC(=O)Nc2ccc(I)nn2)c(=O)c2cc(C3CC3)nn12 [Final Cpd 173] | > 10 | > 10
44 | CC(C)c1nn(CC(=O)Nc2ccc(C(F)F)nn2)c(=O)c2cc(C3CC3)nn12 [Final Cpd 174] | 6.75 | > 10
45 | CC(C)c1nn(CC(=O)Nc2ccc3nncn3c2)c(=O)c2cc(C(C)(F)F)nn12 [Final Cpd 175, N-([1,2,4]triazolo[4,3-a]pyridin-6-yl)-2-(2-(1,1-difluoroethyl)isopropyl-4-oxopyrazolo[1,5-d][1,2,4]triazin-5(4H)-yl)acetamide] | 0.22 | > 10
46 | CC(C)c1nn(CC(=O)Nc2ccc3nncn3n2)c(=O)c2cc(C(C)(F)F)nn12 [Final Cpd 176] | 0.082 | > 10
47 | C=C(OCC)c1cc2c(=O)n(CC(=O)Nc3ccncn3)nc(C(C)C)n2n1 [Final Cpd 179, 2-(2-(1-ethoxyvinyl)-7-isopropyl-4-oxopyrazolo[1,5-d][1,2,4]triazin-5(4H)-yl)-N-(pyrimidin-4-yl)acetamide] | > 10 | > 10
48 | CCOC(C)c1cc2c(=O)n(CC(=O)Nc3ccncn3)nc(C(C)C)n2n1 (centres unmarked) [Final Cpd 180, 2-(2-(1-ethoxyethyl)-74 sopropyl-4-oxopyrazolo[1,5-d][1,2,4]triazin-5(4H)-yl)-N-(pyrimidin-4-yl)acetamide] | > 10 | > 10
49 | CC(C)c1nn(CC(=O)N[C@H]2C[C@@](C)(O)C2)c(=O)c2c(N)c(C3CC3)nn12 [Final Cpd 181, 2-(3-amino-2-cyclopropyl-7-isopropyl-4-oxopyrazolo[1,5-d][1,2,4]triazin-5(4H)-yl)-N-((ls,3s)-3-hydroxy-3-methylcyclobutyl)acetamide] | 0.48 | > 10
50 | CC(C)c1nn(CC(=O)Nc2ccc3nncn3c2)c(=O)c2c(N)c(C3CCC3)nn12 [Final Cpd 182] | 0.1 | > 10
51 | CC(=O)c1cc2c(=O)n(CC(=O)Nc3ccncn3)nc(C(C)C)n2n1 [Final Cpd 183, 2-(2-acetyl-7-isopropyl-4-oxopyrazolo[1,5-d][1,2,4]triazin-5(4H)-yl)-N-(pyrimidin-4-yl)acetamide] | 5.04 | > 10
52 | CCc1nn(CC(=O)Nc2ccncn2)c(=O)c2cc(NC(C)=O)nn12 [Final Cpd 184, 2-(2-acetamido-7-ethyl-4-oxopyrazolo[1,5-d][1,2,4]triazin-5(4H)-yl)-N-(pyrimidin-4-yl)acetamide] | > 10 | > 10
